Measured values from ChEMBL document CHEMBL1135518 (J Med Chem, 2002).

Experiments:
[1] = target: T1, Adrenergic receptor alpha-2 (Rattus norvegicus, UniProt P22086+P19328+P22909); assay: The binding affinity at the Alpha-2 adrenergic receptor determined using [3H]RX-821002; assay type: protein assay
T1 sequence (P22086 whole entry): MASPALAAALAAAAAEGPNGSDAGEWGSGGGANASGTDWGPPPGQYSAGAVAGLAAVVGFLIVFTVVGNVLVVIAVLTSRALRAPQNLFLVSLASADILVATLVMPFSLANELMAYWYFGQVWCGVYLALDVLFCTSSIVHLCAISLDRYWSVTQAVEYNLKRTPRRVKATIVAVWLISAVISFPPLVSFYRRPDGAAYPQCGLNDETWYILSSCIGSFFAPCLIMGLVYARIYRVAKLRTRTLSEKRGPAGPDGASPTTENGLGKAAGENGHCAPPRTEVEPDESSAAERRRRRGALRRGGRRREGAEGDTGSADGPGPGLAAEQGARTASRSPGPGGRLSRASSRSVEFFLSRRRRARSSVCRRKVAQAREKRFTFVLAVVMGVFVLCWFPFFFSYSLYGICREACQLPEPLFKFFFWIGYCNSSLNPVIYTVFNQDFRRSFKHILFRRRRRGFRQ
T1 sequence (P19328 whole entry): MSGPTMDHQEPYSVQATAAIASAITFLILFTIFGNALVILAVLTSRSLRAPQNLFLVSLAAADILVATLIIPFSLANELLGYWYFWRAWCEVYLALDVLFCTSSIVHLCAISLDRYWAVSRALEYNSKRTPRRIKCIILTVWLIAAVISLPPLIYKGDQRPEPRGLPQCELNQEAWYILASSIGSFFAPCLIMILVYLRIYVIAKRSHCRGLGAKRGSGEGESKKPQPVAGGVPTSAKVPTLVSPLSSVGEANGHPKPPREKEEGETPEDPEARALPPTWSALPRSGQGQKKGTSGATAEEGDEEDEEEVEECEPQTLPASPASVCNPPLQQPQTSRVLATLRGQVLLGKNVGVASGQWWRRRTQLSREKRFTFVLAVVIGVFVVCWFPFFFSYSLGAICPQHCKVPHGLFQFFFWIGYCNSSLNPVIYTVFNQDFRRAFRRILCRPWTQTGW
T1 sequence (P22909 whole entry): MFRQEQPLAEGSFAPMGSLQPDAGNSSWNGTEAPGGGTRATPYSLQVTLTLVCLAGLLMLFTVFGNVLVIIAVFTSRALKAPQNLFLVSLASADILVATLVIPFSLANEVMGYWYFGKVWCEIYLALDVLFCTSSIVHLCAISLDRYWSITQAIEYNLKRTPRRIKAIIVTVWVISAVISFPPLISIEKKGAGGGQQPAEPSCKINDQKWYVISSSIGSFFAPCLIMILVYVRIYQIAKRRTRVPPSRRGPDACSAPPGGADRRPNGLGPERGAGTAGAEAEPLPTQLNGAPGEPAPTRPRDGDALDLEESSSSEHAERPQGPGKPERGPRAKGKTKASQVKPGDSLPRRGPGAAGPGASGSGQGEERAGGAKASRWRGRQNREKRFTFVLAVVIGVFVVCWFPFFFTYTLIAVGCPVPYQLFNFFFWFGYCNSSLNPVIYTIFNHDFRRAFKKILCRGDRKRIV

[2] = system: Rattus norvegicus; assay: The increase in the extracellular levels of 5-HT in the rat ventral hippocampus at a dose of 2.5 mg/kg sc measured by in vivo microdialysis; assay type: functional; conditions: route subcutaneous
[3] = system: Rattus norvegicus; assay: The increase in the extracellular levels of NA in the rat ventral hippocampus at a dose of 2.5 mg/kg sc measured by in vivo microdialysis; assay type: functional; conditions: route subcutaneous
[4] = system: Rattus norvegicus; assay: The increase in the extracellular levels of 5-HT in the rat ventral hippocampus at a dose of 5.0 mg/kg sc measured by in vivo microdialysis; assay type: functional; conditions: route subcutaneous
[5] = system: Rattus norvegicus; assay: The increase in the extracellular levels of DOPAC in the rat ventral hippocampus at a dose of 5.0 mg/kg sc measured by in vivo microdialysis; assay type: functional; conditions: route subcutaneous

| Structure (SMILES) | Ki [1] | Increase [2] | Increase [3] | Increase [4] | Increase [5] |
| --- | --- | --- | --- | --- | --- |
| COc1cccc2c1N1CCN(C)C[C@@H]1c1ccccc1C2 | 73 nM | 200% | 200% | – | – |
| COc1cccc2c1N1CCN(C)C[C@H]1c1ccccc1C2 | 37 nM | 200% | – | – | – |
| COc1cccc2c1N1CCN(C)CC1c1ccccc1C2 (racemic) | – | – | – | 200% | 160% |
